In PubChem BioAssay AID1259407 (Chemical Carcinogenesis Research Information System (CCRIS), 2018):
Active and inactive are the calls of the source. The rule behind the calls is not given here.

System: CCRIS mutagenicity, Ames/micronucleus/aberration tests
Assay: CCRIS mutagenicity studies
[1] = Test System: AMES SALMONELLA TYPHIMURIUM, Strain/Indicator: TA100, Metabolic Activation: NONE, Method: STANDARD PLATE
[2] = Test System: AMES SALMONELLA TYPHIMURIUM, Strain/Indicator: TA98, Metabolic Activation: NONE, Method: PREINCUBATION
[3] = Test System: AMES SALMONELLA TYPHIMURIUM, Strain/Indicator: TA1535, Metabolic Activation: NONE, Method: PREINCUBATION
[4] = Test System: AMES SALMONELLA TYPHIMURIUM, Strain/Indicator: TA1537, Metabolic Activation: NONE, Method: PREINCUBATION

Q: How did the mutagenic call [1] turn out when `C[C@H](CCC(=O)O)[C@H]1CC[C@H]2[C@@H]3[C@H](O)C[C@@H]4C[C@H](O)CC[C@]4(C)[C@H]3CC[C@]12C` was run?
A: Its mutagenic call is “inactive; negative”.

Q: And the mutagenic call (Test System: AMES SALMONELLA TYPHIMURIUM, Strain/Indicator: TA100, Metabolic Activation: RAT, LIVER, S-9, AROCLOR 1254, Method: STANDARD PLATE)?
A: The mutagenic call was “inactive; negative”.

Q: `Nc1ccc2nc3ccccc3nc2c1` was tested. Which mutagenic call [2] did it give?
A: The mutagenic call was “inactive; negative”.

Q: What about the mutagenic call (Test System: AMES SALMONELLA TYPHIMURIUM, Strain/Indicator: TA98, Metabolic Activation: RAT, LIVER, S-9, PCB, Method: PREINCUBATION) of the same molecule?
A: Its mutagenic call is “active; positive”.

Q: How did the mutagenic call (Test System: AMES SALMONELLA TYPHIMURIUM, Strain/Indicator: TA97, Metabolic Activation: NONE) turn out when `O=[N+]([O-])c1ccc2c3c(ccc([N+](=O)[O-])c13)-c1ccccc1-2` was run?
A: The mutagenic call was “active; positive”.

Q: And the mutagenic call (Test System: AMES SALMONELLA TYPHIMURIUM, Strain/Indicator: TA98(1,8-DNP6), Metabolic Activation: NONE)?
A: The mutagenic call was “active; positive”.

Q: What about the mutagenic call (Test System: AMES SALMONELLA TYPHIMURIUM, Strain/Indicator: TA98(NR), Metabolic Activation: NONE) of the same molecule?
A: The mutagenic call was “active; positive”.

Q: And the mutagenic call (Test System: AMES SALMONELLA TYPHIMURIUM, Strain/Indicator: TA98, Metabolic Activation: NONE)?
A: The mutagenic call was “active; positive”.

Q: And the mutagenic call (Test System: AMES SALMONELLA TYPHIMURIUM, Strain/Indicator: TA100, Metabolic Activation: NONE)?
A: The mutagenic call was “active; positive”.

Q: What about the mutagenic call (Test System: AMES SALMONELLA TYPHIMURIUM, Strain/Indicator: TA1535, Metabolic Activation: NONE) of the same molecule?
A: Its mutagenic call is “inactive; negative”.

Q: What about the mutagenic call (Test System: AMES SALMONELLA TYPHIMURIUM, Strain/Indicator: TA1537, Metabolic Activation: NONE) of the same molecule?
A: Its mutagenic call is “active; positive”.

Q: What about the mutagenic call (Test System: AMES SALMONELLA TYPHIMURIUM, Strain/Indicator: TA1538, Metabolic Activation: NONE) of the same molecule?
A: The mutagenic call was “active; positive”.

Q: And the mutagenic call (Test System: AMES SALMONELLA TYPHIMURIUM, Strain/Indicator: TA1978, Metabolic Activation: NONE)?
A: The mutagenic call was “inactive; negative”.

Q: For `Oc1ccc2c3ccccc3c3cc4ccccc4cc3c2c1`, which mutagenic call (Test System: AMES SALMONELLA TYPHIMURIUM, Strain/Indicator: TA100, Metabolic Activation: RAT, LIVER, S-9, AROCLOR 1254, Method: PREINCUBATION) is on record?
A: Its mutagenic call is “active; positive”.

Q: Which results are given for `Nc1ccc(N)c2ccccc12`?
A: mutagenic call (Test System: AMES SALMONELLA TYPHIMURIUM, Strain/Indicator: TA98, Metabolic Activation: HAMSTER, LIVER, S-9, AROCLOR 1254 (5%), Method: PREINCUBATION): inactive; negative; mutagenic call (Test System: AMES SALMONELLA TYPHIMURIUM, Strain/Indicator: TA98, Metabolic Activation: HAMSTER, LIVER, S-9, AROCLOR 1254 (30%), Method: PREINCUBATION): active; positive; mutagenic call [2]: inactive; negative; mutagenic call (Test System: AMES SALMONELLA TYPHIMURIUM, Strain/Indicator: TA98, Metabolic Activation: RAT, LIVER, S-9, AROCLOR 1254 (5, 10 OR 30%), Method: PREINCUBATION): inactive; negative; mutagenic call (Test System: AMES SALMONELLA TYPHIMURIUM, Strain/Indicator: TA98, Metabolic Activation: RAT, LIVER, S-9, AROCLOR 1254 (10%), Method: PREINCUBATION): inactive; negative; mutagenic call (Test System: AMES SALMONELLA TYPHIMURIUM, Strain/Indicator: TA100, Metabolic Activation: HAMSTER, LIVER, S-9, AROCLOR 1254 (5%), Method: PREINCUBATION): inactive; negative; mutagenic call (Test System: AMES SALMONELLA TYPHIMURIUM, Strain/Indicator: TA100, Metabolic Activation: HAMSTER, LIVER, S-9, AROCLOR 1254 (30%), Method: PREINCUBATION): active; positive; mutagenic call (Test System: AMES SALMONELLA TYPHIMURIUM, Strain/Indicator: TA100, Metabolic Activation: RAT, LIVER, S-9, AROCLOR 1254 (5, 10 OR 30%), Method: PREINCUBATION): inactive; negative; mutagenic call (Test System: AMES SALMONELLA TYPHIMURIUM, Strain/Indicator: TA100, Metabolic Activation: RAT, LIVER, S-9, AROCLOR 1254 (10%), Method: PREINCUBATION): inactive; negative; mutagenic call (Test System: AMES SALMONELLA TYPHIMURIUM, Strain/Indicator: TA1535, Metabolic Activation: HAMSTER, LIVER, S-9, AROCLOR 1254 (10%), Method: PREINCUBATION): inactive; negative; mutagenic call [3]: inactive; negative; mutagenic call (Test System: AMES SALMONELLA TYPHIMURIUM, Strain/Indicator: TA1535, Metabolic Activation: RAT, LIVER, S-9, AROCLOR 1254 (10%), Method: PREINCUBATION): inactive; negative; mutagenic call (Test System: AMES SALMONELLA TYPHIMURIUM, Strain/Indicator: TA1537, Metabolic Activation: HAMSTER, LIVER, S-9, AROCLOR 1254 (10%), Method: PREINCUBATION): inactive; negative; mutagenic call [4]: inactive; negative; mutagenic call (Test System: AMES SALMONELLA TYPHIMURIUM, Strain/Indicator: TA1537, Metabolic Activation: RAT, LIVER, S-9, AROCLOR 1254 (10%), Method: PREINCUBATION): inactive; negative

Q: `[O]=[Ce]=[O]` was tested. Which mutagenic call [2] did it give?
A: Its mutagenic call is “inactive; negative”.

Q: What about the mutagenic call (Test System: AMES SALMONELLA TYPHIMURIUM, Strain/Indicator: TA98, Metabolic Activation: RAT, LIVER, S-9, KC 500, Method: PREINCUBATION) of the same molecule?
A: The mutagenic call was “inactive; negative”.

Q: And the mutagenic call (Test System: AMES SALMONELLA TYPHIMURIUM, Strain/Indicator: TA100, Metabolic Activation: NONE, Method: PREINCUBATION)?
A: Its mutagenic call is “inactive; negative”.

Q: And the mutagenic call (Test System: AMES SALMONELLA TYPHIMURIUM, Strain/Indicator: TA100, Metabolic Activation: RAT, LIVER, S-9, KC 500, Method: PREINCUBATION)?
A: Its mutagenic call is “inactive; negative”.

Q: And the mutagenic call [3]?
A: The mutagenic call was “inactive; negative”.

Q: And the mutagenic call (Test System: AMES SALMONELLA TYPHIMURIUM, Strain/Indicator: TA1535, Metabolic Activation: RAT, LIVER, S-9, KC 500, Method: PREINCUBATION)?
A: Its mutagenic call is “inactive; negative”.

Q: And the mutagenic call [4]?
A: The mutagenic call was “inactive; negative”.

Q: And the mutagenic call (Test System: AMES SALMONELLA TYPHIMURIUM, Strain/Indicator: TA1537, Metabolic Activation: RAT, LIVER, S-9, KC 500, Method: PREINCUBATION)?
A: Its mutagenic call is “inactive; negative”.

Q: What about the mutagenic call (Test System: AMES SALMONELLA TYPHIMURIUM, Strain/Indicator: TA1538, Metabolic Activation: NONE, Method: PREINCUBATION) of the same molecule?
A: Its mutagenic call is “inactive; negative”.

Q: And the mutagenic call (Test System: AMES SALMONELLA TYPHIMURIUM, Strain/Indicator: TA1538, Metabolic Activation: RAT, LIVER, S-9, KC 500, Method: PREINCUBATION)?
A: The mutagenic call was “inactive; negative”.

Q: And the mutagenic call (Test System: E. COLI, Strain/Indicator: WP2 UVRA, Metabolic Activation: NONE, Method: PREINCUBATION)?
A: The mutagenic call was “inactive; negative”.

Q: And the mutagenic call (Test System: E. COLI, Strain/Indicator: WP2 UVRA, Metabolic Activation: RAT, LIVER, S-9, KC 500, Method: PREINCUBATION)?
A: Its mutagenic call is “inactive; negative”.

Q: With `O=C(O)/C(Cl)=C(\CO)C(Cl)Cl` as the molecule, how does the mutagenic call (Test System: AMES SALMONELLA TYPHIMURIUM, Strain/Indicator: TA97, Metabolic Activation: NONE, Method: STANDARD PLATE) read?
A: Its mutagenic call is “active; positive”.

Q: And the mutagenic call (Test System: AMES SALMONELLA TYPHIMURIUM, Strain/Indicator: TA97, Metabolic Activation: RAT, LIVER, S-9, PHENOBARBITAL, Method: STANDARD PLATE)?
A: Its mutagenic call is “inactive; negative”.

Q: And the mutagenic call (Test System: AMES SALMONELLA TYPHIMURIUM, Strain/Indicator: TA98, Metabolic Activation: NONE, Method: STANDARD PLATE)?
A: The mutagenic call was “inactive; negative”.

Q: And the mutagenic call (Test System: AMES SALMONELLA TYPHIMURIUM, Strain/Indicator: TA98, Metabolic Activation: RAT, LIVER, S-9, PHENOBARBITAL, Method: STANDARD PLATE)?
A: Its mutagenic call is “inactive; negative”.

Q: What about the mutagenic call [1] of the same molecule?
A: Its mutagenic call is “active; positive”.

Q: And the mutagenic call (Test System: AMES SALMONELLA TYPHIMURIUM, Strain/Indicator: TA100, Metabolic Activation: RAT, LIVER, S-9, PHENOBARBITAL, Method: STANDARD PLATE)?
A: The mutagenic call was “inactive; negative”.

Q: Which results are given for `CCn1cc(C(=O)O)c(=O)c2cc(F)c(N3CCNCC3)nc21`?
A: mutagenic call (Test System: AMES SALMONELLA TYPHIMURIUM, Strain/Indicator: HISG428, Metabolic Activation: NONE, Method: STANDARD PLATE): inactive; negative; mutagenic call (Test System: AMES SALMONELLA TYPHIMURIUM, Strain/Indicator: TA92, Metabolic Activation: NONE, Method: STANDARD PLATE): active; positive; mutagenic call (Test System: AMES SALMONELLA TYPHIMURIUM, Strain/Indicator: TA102, Metabolic Activation: NONE, Method: STANDARD PLATE): active; positive; mutagenic call (Test System: AMES SALMONELLA TYPHIMURIUM, Strain/Indicator: TA103, Metabolic Activation: NONE, Method: STANDARD PLATE): active; positive; mutagenic call (Test System: AMES SALMONELLA TYPHIMURIUM, Strain/Indicator: TA104, Metabolic Activation: NONE, Method: STANDARD PLATE): inactive; negative; mutagenic call (Test System: AMES SALMONELLA TYPHIMURIUM, Strain/Indicator: TA2638, Metabolic Activation: NONE, Method: STANDARD PLATE): active; positive; mutagenic call (Test System: AMES SALMONELLA TYPHIMURIUM, Strain/Indicator: TA2661, Metabolic Activation: NONE, Method: STANDARD PLATE): inactive; negative; mutagenic call (Test System: AMES SALMONELLA TYPHIMURIUM, Strain/Indicator: TA2662, Metabolic Activation: NONE, Method: STANDARD PLATE): active; positive; mutagenic call (Test System: AMES SALMONELLA TYPHIMURIUM, Strain/Indicator: TA2678, Metabolic Activation: NONE, Method: STANDARD PLATE): inactive; negative
